pEC50, pKd: −log10 of the molar value. Where “and” joins values, the source holds several entries; their conditions need not be identical. Equal values may be shown once. Read-outs that look alike come from different tables or passages of the source.
How the values were obtained:
[1] = test system: Suit2-07 cells; experiment: Cell proliferation assay, GEM + ATR inhibitor (Incucyte confluence, 72 h); type: cell-based, human; conditions: Suit2-07; for Ratio: Response to Response vehicle (mean); for Ratio / Response: R1; for Curve bottom / Curve top: plateau of fitted curve, ratio drug/vehicle confluence;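 on all read-outs here: Suit2-07 cells grown in 96-well plates at 37 °C, 5% CO2, raw 72 h confluence taken without normalizing to starting confluence, each experiment done in triplicate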
Experimental: (§2) Cells were seeded at 5000 cells/well into 96-well flat bottom plates (Eppendorf) and allowed to attach overnight. […] Cells were incubated for 72 h at 37 °C and 5% CO2. Cell confluence readouts at 72 h were either normalized to their initial confluence using the Incucyte software (AsPC-1) or used without prior normalization (all others). […] Each experiment was performed in triplicates, the data was plotted as mean ± standard deviation (s.d.).

[2] = target: GSK3A ; P49840 (Homo sapiens, UniProt P49840); experiment: biochemical; set-up: species or system AsPC-1; Kinobeads competition pulldown in AsPC-1 lysate with LC-MS/MS label-free quantification; apparent Kd
Sequence of GSK3A ; P49840 (P49840 whole entry): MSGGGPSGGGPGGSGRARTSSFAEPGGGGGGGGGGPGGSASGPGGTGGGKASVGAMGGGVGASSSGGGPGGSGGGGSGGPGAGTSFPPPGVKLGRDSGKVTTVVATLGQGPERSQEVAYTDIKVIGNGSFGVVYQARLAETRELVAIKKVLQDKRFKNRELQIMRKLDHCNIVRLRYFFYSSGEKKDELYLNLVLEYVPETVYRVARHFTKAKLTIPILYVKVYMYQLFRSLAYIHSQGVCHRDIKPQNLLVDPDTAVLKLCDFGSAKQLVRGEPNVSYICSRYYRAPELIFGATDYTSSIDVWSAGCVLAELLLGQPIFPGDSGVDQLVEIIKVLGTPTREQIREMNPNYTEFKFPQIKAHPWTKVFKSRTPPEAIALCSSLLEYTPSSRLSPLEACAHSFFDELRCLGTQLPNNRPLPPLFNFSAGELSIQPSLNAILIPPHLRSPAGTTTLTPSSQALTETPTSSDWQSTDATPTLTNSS
Experimental: (§1) This was followed by incubation with Kinobeads ε (17.5 µl of settled beads) for 30 min at 4 °C to enrich kinases. […] Enriched proteins were reduced with 50 mM DTT in 8 M urea, 40 mM Tris-HCl, pH 7.4 for 30 min at room temperature, and alkylated with 55 mM chloroacetamide. After reducing the urea concentration to 1–2 M, proteins were digested with trypsin at 37 °C for 16 h. Subsequently, eluted peptides were desalted using SepPak tC18 µElution plates (Waters), freeze-dried by vacuum centrifugation, and stored at −20 °C. Proteins were filtered by potential contaminants, reversed hits and proteins identified only by site. Residual binding of proteins was calculated from LFQ intensities as the ratio between drug doses and vehicle. […] Only kinases quantified with at least 4 unique peptides in the vehicle experiment were considered. Potential targets were further curated through manual inspection of dose-dependent reduction in MS/MS and unique peptide counts.

[3] = target: MAP3K1 ; Q13233 (Homo sapiens, UniProt Q13233); experiment: biochemical; set-up: species or system AsPC-1; Kinobeads competition pulldown in AsPC-1 lysate with LC-MS/MS label-free quantification; apparent Kd
Sequence of MAP3K1 ; Q13233 (Q13233 whole entry): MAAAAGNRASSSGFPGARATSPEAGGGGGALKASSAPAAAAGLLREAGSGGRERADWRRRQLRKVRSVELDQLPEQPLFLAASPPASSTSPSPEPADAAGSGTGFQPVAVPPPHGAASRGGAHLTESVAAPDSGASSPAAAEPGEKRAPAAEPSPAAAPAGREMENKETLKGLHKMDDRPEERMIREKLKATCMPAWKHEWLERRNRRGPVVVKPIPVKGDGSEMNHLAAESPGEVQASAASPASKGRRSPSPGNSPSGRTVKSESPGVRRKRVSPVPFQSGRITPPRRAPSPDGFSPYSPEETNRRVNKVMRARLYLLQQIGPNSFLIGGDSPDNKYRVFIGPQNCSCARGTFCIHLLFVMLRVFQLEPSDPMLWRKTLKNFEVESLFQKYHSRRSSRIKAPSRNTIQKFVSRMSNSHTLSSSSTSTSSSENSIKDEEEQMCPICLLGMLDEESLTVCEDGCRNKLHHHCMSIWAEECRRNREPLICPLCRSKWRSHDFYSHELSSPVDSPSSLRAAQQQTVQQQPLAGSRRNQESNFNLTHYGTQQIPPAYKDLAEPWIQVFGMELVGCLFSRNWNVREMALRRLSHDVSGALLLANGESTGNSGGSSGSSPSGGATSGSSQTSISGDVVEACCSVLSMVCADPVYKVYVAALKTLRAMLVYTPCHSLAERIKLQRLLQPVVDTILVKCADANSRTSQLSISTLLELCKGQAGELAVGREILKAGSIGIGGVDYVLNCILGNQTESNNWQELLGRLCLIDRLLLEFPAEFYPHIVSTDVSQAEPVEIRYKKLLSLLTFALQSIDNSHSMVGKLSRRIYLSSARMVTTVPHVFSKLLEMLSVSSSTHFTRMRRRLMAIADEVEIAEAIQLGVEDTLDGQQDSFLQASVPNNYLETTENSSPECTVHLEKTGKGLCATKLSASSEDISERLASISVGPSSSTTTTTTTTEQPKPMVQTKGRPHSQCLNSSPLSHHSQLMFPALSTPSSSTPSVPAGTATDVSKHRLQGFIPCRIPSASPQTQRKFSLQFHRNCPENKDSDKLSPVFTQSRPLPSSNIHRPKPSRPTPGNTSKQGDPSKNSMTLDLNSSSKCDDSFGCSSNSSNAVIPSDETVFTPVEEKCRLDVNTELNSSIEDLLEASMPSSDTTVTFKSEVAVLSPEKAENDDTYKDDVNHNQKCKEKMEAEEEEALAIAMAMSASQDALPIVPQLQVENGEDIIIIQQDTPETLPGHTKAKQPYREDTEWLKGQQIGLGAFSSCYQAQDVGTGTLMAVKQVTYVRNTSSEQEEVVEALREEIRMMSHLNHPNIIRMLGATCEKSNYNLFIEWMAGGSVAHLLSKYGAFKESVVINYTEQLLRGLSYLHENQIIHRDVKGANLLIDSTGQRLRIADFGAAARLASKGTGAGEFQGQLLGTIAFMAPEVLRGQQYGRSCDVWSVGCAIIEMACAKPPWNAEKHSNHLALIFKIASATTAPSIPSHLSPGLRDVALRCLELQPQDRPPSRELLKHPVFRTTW
Experimental: as §1

[4] = test system: PANC-1 cells; experiment: Cell proliferation assay, GEM + ATR inhibitor (Incucyte confluence, 72 h); conditions: for EC50: Homo sapiens, mean of replicates; for Curve bottom / Curve top: PANC-1, plateau of fitted curve, ratio drug/vehicle confluence;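 on all read-outs here: PANC-1 confluence at 72 h taken as raw values, not normalized to starting confluence, with each experiment run in triplicate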;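 on pEC50: in combination experiments GEM is titrated while ATRi is held at a fixed sub-EC50 dose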
Experimental: as §2

[5] = GEM+ATRi_dose3, GEM 30 nM + ATRi 30 nM
[6] = experiment ATRi (ATR inhibitor alone)

Compound Nc1nn2cc(F)cnc2c1C(=O)Nc1cncc(F)c1N1CCC(C(=O)N2CCN(C3COC3)CC2)CC1 [Gartisertib] has an EC50 ([1]; Homo sapiens, 72 h, experiment ATRi (ATR inhibitor alone), -log10 of EC50 [M], read-out: pEC50 (converted)) of 3.39e-07 M, a pEC50 ([1]; Homo sapiens, 72 h, experiment ATRi (ATR inhibitor alone), mean (one replicate), read-out: EC50 mean) of 6.47 and a pEC50 ([1]; Homo sapiens, 72 h, experiment ATRi (ATR inhibitor alone), replicate R1, read-out: EC50) of 6.47. The Ratio ([1]; GEM+ATRi_dose1, GEM 0 nM + ATRi 10 nM) was 1.02, the Ratio ([1]; GEM+ATRi_dose1, GEM 1 nM + ATRi 10 nM) was 1.01 and the Ratio ([1]; GEM+ATRi_dose1, GEM 3 nM + ATRi 10 nM) was 0.93. The Ratio ([1]; GEM+ATRi_dose1, GEM 10 nM + ATRi 10 nM) was 0.23, the Ratio ([1]; GEM+ATRi_dose1, GEM 30 nM + ATRi 10 nM) was 0.15 and the Ratio ([1]; GEM+ATRi_dose1, GEM 100 nM + ATRi 10 nM) was 0.15. The Ratio ([1]; GEM+ATRi_dose1, GEM 300 nM + ATRi 10 nM) was 0.12, the Ratio ([1]; GEM+ATRi_dose1, GEM 1000 nM + ATRi 10 nM) was 0.11 and the Ratio ([1]; GEM+ATRi_dose1, GEM 3000 nM + ATRi 10 nM) was 0.09. For the same compound, the Ratio ([1]; GEM+ATRi_dose2, GEM 0 nM + ATRi 3 nM) was 0.98, the Ratio ([1]; GEM+ATRi_dose2, GEM 1 nM + ATRi 3 nM) was 0.98 and the Ratio ([1]; GEM+ATRi_dose2, GEM 3 nM + ATRi 3 nM) was 0.26. It also gave a Ratio ([1]; GEM+ATRi_dose2, GEM 10 nM + ATRi 3 nM) of 0.16, a Ratio ([1]; GEM+ATRi_dose2, GEM 30 nM + ATRi 3 nM) of 0.13 and a Ratio ([1]; GEM+ATRi_dose2, GEM 100 nM + ATRi 3 nM) of 0.13. It also gave a Ratio ([1]; GEM+ATRi_dose2, GEM 300 nM + ATRi 3 nM) of 0.11, a Ratio ([1]; GEM+ATRi_dose2, GEM 1000 nM + ATRi 3 nM) of 0.11 and a Ratio ([1]; GEM+ATRi_dose2, GEM 3000 nM + ATRi 3 nM) of 0.09. For the same compound, the Ratio ([1]; GEM+ATRi_dose3, GEM 0 nM + ATRi 30 nM) was 0.97, the Ratio ([1]; GEM+ATRi_dose3, GEM 1 nM + ATRi 30 nM) was 0.93 and the Ratio ([1]; GEM+ATRi_dose3, GEM 3 nM + ATRi 30 nM) was 0.37. The Ratio ([1]; GEM+ATRi_dose3, GEM 10 nM + ATRi 30 nM) was 0.18, the Ratio [1, 5] was 0.14 and the Ratio ([1]; GEM+ATRi_dose3, GEM 100 nM + ATRi 30 nM) was 0.13. The Ratio ([1]; GEM+ATRi_dose3, GEM 300 nM + ATRi 30 nM) was 0.12, the Ratio ([1]; GEM+ATRi_dose3, GEM 1000 nM + ATRi 30 nM) was 0.13 and the Ratio ([1]; GEM+ATRi_dose3, GEM 3000 nM + ATRi 30 nM) was 0.08. It also gave a Ratio ([1]; experiment ATRi, ATRi 3 nM, GEM 0 nM) of 1.02, a Ratio ([1]; experiment ATRi, ATRi 10 nM, GEM 0 nM) of 1.01 and a Ratio ([1]; experiment ATRi, ATRi 30 nM, GEM 0 nM) of 0.98. For the same compound, the Ratio ([1]; experiment ATRi, ATRi 100 nM, GEM 0 nM) was 0.96, the Ratio ([1]; experiment ATRi, ATRi 300 nM, GEM 0 nM) was 0.63 and the Ratio ([1]; experiment ATRi, ATRi 1000 nM, GEM 0 nM) was 0.22. The Ratio ([1]; experiment ATRi, ATRi 3000 nM, GEM 0 nM) was 0.19, the Ratio ([1]; experiment ATRi, ATRi 10000 nM, GEM 0 nM) was 0.12 and the Response ([1]; GEM+ATRi_dose1, GEM 0 nM + ATRi 10 nM, in % (unit assumed)) was 99.22. The Response ([1]; GEM+ATRi_dose1, GEM 1 nM + ATRi 10 nM, in % (unit assumed)) was 98.36, the Response ([1]; GEM+ATRi_dose1, GEM 3 nM + ATRi 10 nM, in % (unit assumed)) was 90.74 and the Response ([1]; GEM+ATRi_dose1, GEM 10 nM + ATRi 10 nM, in % (unit assumed)) was 21.98. The Response ([1]; GEM+ATRi_dose1, GEM 30 nM + ATRi 10 nM, in % (unit assumed)) was 14.67, the Response ([1]; GEM+ATRi_dose1, GEM 100 nM + ATRi 10 nM, in % (unit assumed)) was 14.71 and the Response ([1]; GEM+ATRi_dose1, GEM 300 nM + ATRi 10 nM, in % (unit assumed)) was 11.45. For the same compound, the Response ([1]; GEM+ATRi_dose1, GEM 1000 nM + ATRi 10 nM, in % (unit assumed)) was 10.53, the Response ([1]; GEM+ATRi_dose1, GEM 3000 nM + ATRi 10 nM, in % (unit assumed)) was 8.70 and the Response ([1]; GEM+ATRi_dose2, GEM 0 nM + ATRi 3 nM, in % (unit assumed)) was 95.38. It also gave a Response ([1]; GEM+ATRi_dose2, GEM 1 nM + ATRi 3 nM, in % (unit assumed)) of 96.21, a Response ([1]; GEM+ATRi_dose2, GEM 3 nM + ATRi 3 nM, in % (unit assumed)) of 25.36 and a Response ([1]; GEM+ATRi_dose2, GEM 10 nM + ATRi 3 nM, in % (unit assumed)) of 15.98. For the same compound, the Response ([1]; GEM+ATRi_dose2, GEM 30 nM + ATRi 3 nM, in % (unit assumed)) was 13.06, the Response ([1]; GEM+ATRi_dose2, GEM 100 nM + ATRi 3 nM, in % (unit assumed)) was 13.09 and the Response ([1]; GEM+ATRi_dose2, GEM 300 nM + ATRi 3 nM, in % (unit assumed)) was 10.34. For the same compound, the Response ([1]; GEM+ATRi_dose2, GEM 1000 nM + ATRi 3 nM, in % (unit assumed)) was 10.34, the Response ([1]; GEM+ATRi_dose2, GEM 3000 nM + ATRi 3 nM, in % (unit assumed)) was 9.00 and the Response ([1]; GEM+ATRi_dose3, GEM 0 nM + ATRi 30 nM, in % (unit assumed)) was 94.90. For the same compound, the Response ([1]; GEM+ATRi_dose3, GEM 1 nM + ATRi 30 nM, in % (unit assumed)) was 91.25, the Response ([1]; GEM+ATRi_dose3, GEM 3 nM + ATRi 30 nM, in % (unit assumed)) was 36.47 and the Response ([1]; GEM+ATRi_dose3, GEM 10 nM + ATRi 30 nM, in % (unit assumed)) was 17.41. The Response [1, 5] was 13.78, the Response ([1]; GEM+ATRi_dose3, GEM 100 nM + ATRi 30 nM, in % (unit assumed)) was 12.30 and the Response ([1]; GEM+ATRi_dose3, GEM 300 nM + ATRi 30 nM, in % (unit assumed)) was 12.12. For the same compound, the Response ([1]; GEM+ATRi_dose3, GEM 1000 nM + ATRi 30 nM, in % (unit assumed)) was 12.34, the Response ([1]; GEM+ATRi_dose3, GEM 3000 nM + ATRi 30 nM, in % (unit assumed)) was 7.88 and the Curve bottom [1, 6] was 1.01. For the same compound, the Curve top [1, 6] was 0.15, the Response ([1]; experiment ATRi, ATRi 3 nM, GEM 0 nM, in % (unit assumed)) was 99.33 and the Response ([1]; experiment ATRi, ATRi 10 nM, GEM 0 nM, in % (unit assumed)) was 98.82. The Response ([1]; experiment ATRi, ATRi 30 nM, GEM 0 nM, in % (unit assumed)) was 95.35, the Response ([1]; experiment ATRi, ATRi 100 nM, GEM 0 nM, in % (unit assumed)) was 93.53 and the Response ([1]; experiment ATRi, ATRi 300 nM, GEM 0 nM, in % (unit assumed)) was 61.81. The Response ([1]; experiment ATRi, ATRi 1000 nM, GEM 0 nM, in % (unit assumed)) was 21.20, the Response ([1]; experiment ATRi, ATRi 3000 nM, GEM 0 nM, in % (unit assumed)) was 18.17 and the Response ([1]; experiment ATRi, ATRi 10000 nM, GEM 0 nM, in % (unit assumed)) was 11.75. For the same compound, the Curve bottom ([1]; experiment GEM+ATRi_dose1) was 1.01, the Curve top ([1]; experiment GEM+ATRi_dose1) was 0.12 and the Curve bottom ([1]; experiment GEM+ATRi_dose2) was 0.98. For the same compound, the Curve top ([1]; experiment GEM+ATRi_dose2) was 0.12, the Curve bottom ([1]; experiment GEM+ATRi_dose3) was 0.98 and the Curve top ([1]; experiment GEM+ATRi_dose3) was 0.13. The pKd [2] was 9.14, the pKd [3] was 6.38 and the EC50 ([4]; PANC-1, 72 h, read-out: EC50 mean [nM], PANC-1, experiment ATRi (ATR inhibitor alone)) was 7880 nM. For the same compound, the EC50 ([4]; PANC-1, read-out: EC50 mean [nM], PANC-1, experiment ATRi (ATR inhibitor alone)) was 7880 nM, the EC50 ([4]; PANC-1, read-out: EC50 mean [nM], PANC-1, experiment GEM+ATRi_dose1) was 4.13 nM and the EC50 ([4]; PANC-1, read-out: EC50 mean [nM], PANC-1, experiment GEM+ATRi_dose2) was 8.99 nM. For the same compound, the EC50 ([4]; PANC-1, read-out: EC50 mean [nM], PANC-1, experiment GEM+ATRi_dose3) was 6.69 nM, the Curve bottom [4, 6] was 1.03 and 0.99 and 0.93 and the Curve top ([4]; experiment GEM+ATRi_dose1) was 0.48 and 0.43 and 0.49. The Curve top ([4]; experiment GEM+ATRi_dose2) was 0.47 and 0.43 and 0.52, the Curve bottom ([4]; experiment GEM+ATRi_dose3) was 0.95 and 0.86 and 1.00 and the Curve top ([4]; experiment GEM+ATRi_dose3) was 0.47 and 0.45 and 0.50.

Source: publication PMC11876601 (Molecular Systems Biology, 2025)
